Experimental data taken from patent US20250115572A1, “SPIROCYCLIC PIPERIDINYL DERIVATIVES AS COMPLEMENT FACTOR B INHIBITORS AND USES THEREOF” (Novartis AG, priority 2022, published 2025).
Where two headings read alike, the source gives them in different places.

Biological target: Recombinant human factor B (Homo sapiens (Human), UniProt P00751)
Assay: Human Complement Factor B TR-FRET Assay
Format: binding
Conditions: * = assay behavior at and above the stated concentration prevented IC50 determination
Protocol: The time-gated decrease in fluorescence intensity related to the competition between labeled and unlabeled factor B ligands was recorded at both 620 nm and 665 nm, 70 μs after excitation at 337 nm using a microplate spectrofluorimeter.

[1] = displacement of labeled factor B ligand, read-out: hFactor-B TR-FRET Qualified IC50

Chain of Recombinant human factor B (P00751 26-764): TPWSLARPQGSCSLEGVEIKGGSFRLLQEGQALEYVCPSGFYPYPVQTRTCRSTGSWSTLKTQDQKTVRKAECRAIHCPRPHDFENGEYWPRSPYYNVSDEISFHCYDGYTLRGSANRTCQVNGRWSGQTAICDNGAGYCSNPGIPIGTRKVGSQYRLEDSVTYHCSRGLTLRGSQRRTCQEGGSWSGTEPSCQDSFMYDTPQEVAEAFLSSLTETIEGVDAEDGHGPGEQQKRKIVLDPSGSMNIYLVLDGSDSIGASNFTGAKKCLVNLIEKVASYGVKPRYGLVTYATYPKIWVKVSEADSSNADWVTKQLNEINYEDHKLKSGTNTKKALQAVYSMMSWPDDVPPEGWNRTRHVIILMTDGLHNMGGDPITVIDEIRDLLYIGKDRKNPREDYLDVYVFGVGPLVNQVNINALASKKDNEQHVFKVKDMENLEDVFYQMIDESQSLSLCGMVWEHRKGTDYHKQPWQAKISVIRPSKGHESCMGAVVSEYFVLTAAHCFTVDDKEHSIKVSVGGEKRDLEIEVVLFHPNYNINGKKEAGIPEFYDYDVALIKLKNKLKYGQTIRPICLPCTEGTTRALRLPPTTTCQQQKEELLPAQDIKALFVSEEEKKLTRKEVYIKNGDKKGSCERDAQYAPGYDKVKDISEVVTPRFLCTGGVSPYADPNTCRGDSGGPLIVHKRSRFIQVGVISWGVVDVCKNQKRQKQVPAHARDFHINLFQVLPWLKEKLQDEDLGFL

SMILES	IC50 [1]	IC50 (hFactor-B TR-FRET Qualified IC50, displacement of labeled factor B ligand)
COc1cc(C)c2[nH]ccc2c1CN1CCC2(CC1c1ccccc1)CC(F)(F)C2 (racemic) [Ex-35]	17.3 nM	
COc1cc(C)c2[nH]ccc2c1CN1CCC2(CC1c1cnn(C)c1)CC(F)(F)C2 (racemic) [Ex-36]	24.5 nM	
COc1cc(C)c2[nH]ccc2c1CN1CCC2(CC1c1ccc(C(=O)O)cc1)CC(F)(F)C2 (racemic) [Ex-47]		2.5 nM
Cc1cc(C2CC2)c(CN2CCC3(CC2c2ccc(C(C)(C)O)cc2)CC(F)(F)C3)c2cc[nH]c12 (racemic) [Ex-48]	8.9 nM	
Cc1cc(C2CC2)c(CN2CCC3(CC2c2ccc(C4(O)COC4)cc2)CC(F)(F)C3)c2cc[nH]c12 (racemic) [Ex-49, 3-(4-(7-((5-cyclopropyl-7-methyl-1H-indol-4-yl)methyl)-2,2-difluoro-7-azaspiro[3.5]nonan-6-yl)phenyl)oxetan-3-ol]	5.6 nM	
Cc1cc(C2CC2)c(CN2CCC3(CC2c2ccc(-n4cccn4)cc2)CC(F)(F)C3)c2cc[nH]c12 (racemic) [Ex-50]	7 nM	
Cc1cc(C2CC2)c(CN2CCC3(CC2c2ccc(-c4ccn[nH]4)cc2)CC(F)(F)C3)c2cc[nH]c12 (racemic) [Ex-51]	4.2 nM	
COc1cc(C)c2[nH]ccc2c1CN1CCC2(CC1c1ccc(C(F)F)cc1)CC(F)(F)C2 (racemic) [Ex-52]	172 nM	
COc1cc(C)c2[nH]ccc2c1CN1CCC2(CC1c1ccc(-c3nnn[nH]3)cc1)CC(F)(F)C2 (racemic) [Ex-54, (SR)-6-(4-(1H-tetrazol-5-yl)phenyl)-2,2-difluoro-7-((5-methoxy-7-methyl-1H-indol-4-yl)methyl)-7-azaspiro[3.5]nonane]	2.2 nM	
Cc1cc(C2CC2)c(CN2CCC3(CC2c2ccc(-c4nnn[nH]4)cc2)CC(F)(F)C3)c2cc[nH]c12 (racemic) [Ex-57, 6-(4-(1H-tetrazol-5-yl)phenyl)-7-((5-cyclopropyl-7-methyl-1H-indol-4-yl)methyl)-2,2-difluoro-7-azaspiro[3.5]nonane]	5 nM	
COc1cc(C)c2[nH]ccc2c1CN1CCC2(CC1c1ccc(-c3nnn[nH]3)nc1)CC(F)(F)C2 (racemic) [Ex-58, (SR)-6-(6-(1H-tetrazol-5-yl)pyridin-3-yl)-2,2-difluoro-7-((5-methoxy-7-methyl-1H-indol-4-yl)methyl)-7-azaspiro[3.5]nonane]	3.8 nM	
Cc1cc(C2CC2)c(CN2CCC3(CC2c2ccc(-c4nnn[nH]4)nc2)CC(F)(F)C3)c2cc[nH]c12 (racemic) [Ex-61, (SR)-6-(6-(1H-tetrazol-5-yl)pyridin-3-yl)-7-((5-cyclopropyl-7-methyl-1H-indol-4-yl)methyl)-2,2-difluoro-7-azaspiro[3.5]nonane]	3.8 nM	
COc1cc(C)c2[nH]ccc2c1CN1CCC2(C[C@@H]1c1ccc(C(=O)O)cc1)CC(C)(F)C2 (single isomer, unassigned) [Ex-2]	6810 nM	
COc1cc(C)c2[nH]ccc2c1CN1CCC2(C[C@H]1c1ccc(C(=O)O)cc1)CC(C)(F)C2 (single isomer, unassigned) [Ex-3]	40.7 nM	
COc1cc(C)c2[nH]ccc2c1CN1CCC2(C[C@@H]1c1ccc(C(=O)O)cc1)CC(C)(F)C2 (single isomer, unassigned) [Ex-4]	461 nM	
COc1cc(C)c2[nH]ccc2c1CN1CCC2(CC(F)C2)C[C@@H]1c1ccc(C(=O)O)cc1 (single isomer, unassigned) [Ex-8]	227 nM	
COc1cc(C)c2[nH]ccc2c1CN1CCC2(C[C@@H]1c1ccc(C(=O)O)cc1)CC(C)(O)C2 (single isomer, unassigned) [Ex-14]	10000 nM	
COc1cc(C)c2[nH]ccc2c1CN1CCC2(C[C@H]1c1ccc(C(=O)O)cc1)CC(C)(O)C2 (single isomer, unassigned) [Ex-15]	105 nM	
COc1cc(C)c2[nH]ccc2c1CN1CCC2(CCC(F)(F)C2)C[C@H]1c1ccc(C(=O)O)cc1 (single isomer, unassigned) [Ex-20]	7.6 nM	
Cc1cc(C2CC2)c(CN2CCC3(C[C@H]2c2ccc(C4(O)COC4)cc2)CC(F)(F)C3)c2cc[nH]c12 (single isomer, unassigned) [Ex-25]	4 nM	
Cc1cc(C2CC2)c(CN2CCC3(C[C@@H]2c2ccc(C4(O)COC4)cc2)CC(F)(F)C3)c2cc[nH]c12 (single isomer, unassigned) [Ex-26]	> 400 nM	
Cc1cc(C2CC2)c(CN2CCC3(C[C@H]2c2ccc(C(C)(C)O)cc2)CC(F)(F)C3)c2cc[nH]c12 (single isomer, unassigned) [Ex-27]	6.9 nM	
Cc1cc(C2CC2)c(CN2CCC3(C[C@@H]2c2ccc(C(C)(C)O)cc2)CC(F)(F)C3)c2cc[nH]c12 (single isomer, unassigned) [Ex-28]	> 400 nM	
Cc1cc(C2CC2)c(CN2CCC3(C[C@H]2c2ccc(-c4ccn[nH]4)cc2)CC(F)(F)C3)c2cc[nH]c12 (single isomer, unassigned) [Ex-29]	5.1 nM	
Cc1cc(C2CC2)c(CN2CCC3(C[C@@H]2c2ccc(-c4ccn[nH]4)cc2)CC(F)(F)C3)c2cc[nH]c12 (single isomer, unassigned) [Ex-30]	> 100 nM	

Now from value to compound, other results behind:

IC50 [1]	SMILES	IC50 (hFactor-B TR-FRET Qualified IC50, displacement of labeled factor B ligand)
29.4 nM	COc1cc(C)c2[nH]ccc2c1CN1CCC2(CC1c1ccc(C(=O)O)cc1)CC(C)(O)C2 (racemic) [Ex-13]	
434 nM	COc1cc(C)c2[nH]ccc2c1CN1CCC2(CC1c1ccc(C(=O)O)cc1)CC(C)(O)C2 (racemic) [Ex-16]	
0.5 nM	COc1cc(C)c2[nH]ccc2c1CN1CCC2(C[C@H]1c1ccc(C(=O)O)cc1)CC(C)(F)C2 (single isomer, unassigned) [Ex-1]	
0.8 nM	COc1cc(C)c2[nH]ccc2c1CN1CCC2(CC(F)C2)C[C@H]1c1ccc(C(=O)O)cc1 (single isomer, unassigned) [Ex-7]	
2.1 nM	COc1cc(C)c2[nH]ccc2c1CN1CCC2(CC(F)C2)C[C@H]1c1ccc(C(=O)O)cc1 (single isomer, unassigned) [Ex-9, 4-(2-fluoro-7-((5-methoxy-7-methyl-1H-indol-4-yl)methyl)-7-azaspiro[3.5]nonan-6-yl)benzoic acid]	
242 nM	COc1cc(C)c2[nH]ccc2c1CN1CCC2(CC(F)C2)C[C@@H]1c1ccc(C(=O)O)cc1 (single isomer, unassigned) [Ex-10]	
320 nM	COc1cc(C)c2[nH]ccc2c1CN1CCC2(CCC(F)(F)C2)C[C@@H]1c1ccc(C(=O)O)cc1 (single isomer, unassigned) [Ex-17]	
3.4 nM	COc1cc(C)c2[nH]ccc2c1CN1CCC2(CCC(F)(F)C2)C[C@H]1c1ccc(C(=O)O)cc1 (single isomer, unassigned) [Ex-18, 4-((5S,7S)-2,2-difluoro-8-((5-methoxy-7-methyl-1H-indol-4-yl)methyl)-8-azaspiro[4.5]decan-7-yl)benzoic acid or 4-((5R,7S)-2,2-difluoro-8-((5-methoxy-7-methyl-1H-indol-4-yl)methyl)-8-azaspiro[4.5]decan-7-yl)benzoic acid]	
1460 nM	COc1cc(C)c2[nH]ccc2c1CN1CCC2(CCC(F)(F)C2)C[C@@H]1c1ccc(C(=O)O)cc1 (single isomer, unassigned) [Ex-19]	
8.9 nM	Cc1cc(C2CC2(F)F)c(CN2CCC3(C[C@H]2c2ccc(C(=O)O)cc2)CC(F)(F)C3)c2cc[nH]c12 (single isomer, unassigned) [Ex-23]	
31.4 nM	Cc1cc(C2CC2(F)F)c(CN2CCC3(C[C@H]2c2ccc(C(=O)O)cc2)CC(F)(F)C3)c2cc[nH]c12 (single isomer, unassigned) [Ex-24]	
